Laboratory results from publication PMC10574185, “Encapsulation and Biological Activity of Hesperetin Derivatives with HP-β-CD” (Molecules, 2023).
≈ marks a conversion by molar mass, not a printed value. Like-named read-outs stand apart in the source and are kept apart here.

Tests used:
[1] = DPPH assay (antioxidant activity); conditions: concentration 0.1 mg/mL, mean ± SD
Description: (§1) To evaluate the antioxidant ability of the tested systems, antioxidant analysis was performed. Antioxidants can scavenge hydroxyl radicals in two ways: by reacting directly with hydroxyl radicals (DPPH^•, ABTS^•+) or indirectly inhibiting the formation of hydroxyl radicals by chelating metal ions involved in the production of hydroxyl radicals. The antioxidant activity of the systems studied was investigated by using DPPH^• scavenging, ABTS^•+ scavenging ability, and Fe^2+-chelating ability. In this study, the antioxidant activity of pure hesperetin and its Schiff bases (HHSB, HIN, and HTSC) and HP-β-CD complexes were compared, and the positive control was Trolox.
The detailed methodology of DPPH assay was described in the previous paper by Sykuła et al..

[2] = Phase solubility studies with HP-β-CD; type: physicochemical; conditions: for solubility at 60 min: thermodynamic from solid
Description: The purpose of this part of the study was to determine the solubility of compounds of hesperetin and its Schiff bases (HHSB, HIN, and HTSC) in aqueous solution at different pHs and temperatures, and the effect of their inclusion in modified HP-β-CD on the aqueous solubility of these compounds at different pH values.
The effect of the presence of HP-β-CD at different temperatures (25, 37, and 60 °C) was determined by developing phase solubility diagrams.
In accordance with the methodology described in Section 3.4, excess amounts of each tested substance were added to aqueous solution with increasing concentration of HP-β-CD up to 16 mM, respectively, in 2 mL of 100 mM sodium acetate buffer (pH 3.6), 100 mM sodium phosphate buffer (pH 6.5) or 100 mM sodium borate buffer (pH 8.5).
Phase solubility studies were conducted according to [64] with some modifications. Excess amounts of each tested substance were added to aqueous solution with increasing concentration of HP-β-CD up to 16 mM, in 2 mL of 100 mM sodium acetate buffer (pH 3.6), 100 mM sodium phosphate buffer (pH 6.5), or 100 mM sodium borate buffer (pH 8.5), respectively. The samples were maintained in an ultrasonic bath at various temperatures (25, 37, and 60 °C) for 60 min to reach equilibrium. The aqueous solutions were then filtered through 0.45 µm acetate cellulose (CA) membrane filter and diluted. The tested compound concentration on each clear filtrate was spectrophotometrically determined by measuring at their wavelength maximum.
The complexation constant (Kc) between studied molecules and HP-β-CD was determined by using Equation (1):(1) Kc=slope/S0 (1−slope) where S0 means the water solubility of the studied substance, and “slope” means the slope of the phase solubility diagram.
Complexation efficiency was calculated from the slope of the phase solubility diagram using Equation (2):(2) CE=S0×Kc=slope/1−slope
The CE was also applied to evaluate the molar ratio in solution of tested systems using Equation (3):(3) Compound:HP−β−CD=1:(1+1/CE)

[3] = FRAP assay (ferric-ion reducing antioxidant power); conditions: mean ± SD
Description: as §1
The antioxidant capacity determined by the FRAP assay (the ability of plasma to reduce iron) was carried out using a modification of the FRAP assay. The FRAP reagent consisted of the following solutions: 300 mM acetate, pH 3.6 glacial acetic acid buffer, 20 mM ferric chloride (FeCl3×6H2O), and 10 mM 2,4,6-tripyridyl-S-triazine (TPTZ) prepared in 40 mM HCl. The aforementioned solutions were mixed together in a ratio of 10:1:1 (v/v/v). The FRAP assay consisted of adding 15 µL of sample to 1.98 mL of reagent and incubating the mixture at 37 °C for 4 min. Absorbance measurement was recorded at 593 nm against a blank. Total antioxidant capacity was estimated relative to a standard of known FRAP concentration, ferrous sulfate.

[4] = system: Staphylococcus aureus ATCC 25923; assay: Minimal inhibition concentration (dilution + diffusion-well); type: cell-based; conditions: ATCC25923, 37 °C, 18 h
Description: The MIC was performed for compounds and strains sensitive to their action in the antagonistic test. Minimum inhibitory concentration was determined by combining the dilution method with the diffusion-well method. Test compounds at a concentration of 500 μM were prepared in 5% (w/w) DMSO. Surface layer of microorganisms, against which antagonistic activity was noted, were prepared in the same way as for the antagonistic test. Then, two-fold sequential dilutions of the test compounds in the range of 500 µM to 62.5 µM were prepared. Wells with a diameter of 8 mm cut in the Mueller–Hinton Agar (Merck, Darmstadt, Germany) with the test strain were added with 50 µL of the prepared dilutions, which corresponded to the following concentrations of the tested compounds: […], 1.25 mM, 0.625 mM, and […]. Petri dishes prepared in this way were incubated at 37 °C for 18 h. After a given time, the MIC value was read. The MIC concentration expressed in µM was the first concentration of the tested compounds at which growth inhibition of the test strain was observed.

[5] = ABTS^•+ radical cation decolorization assay; conditions: concentration 0.1 mg/mL, mean ± SD
Description: as §1
Antioxidant activity using ABTS^•+ cation radical scavenging was determined according to a modified method. ABTS solution (2.5 mM) was mixed with 1.0 mM potassium persulfate solution and left at room temperature in the dark for 12-24 h. After this time, the absorbance of the finished ABTS^•+ solution was corrected with ethanol to 0.70 ± 0.02 at 745 nm. A total of 100 µL of the sample was reacted for 5 min with 2 mL of ABTS^•+ solution (A745 nm = 0.70 ± 0.02). The absorbance value of the reaction mixture was measured at 745 nm. […] Scavenging activity (%) = [1 − (Asample − Ablank)/Acontrol] × 100%(4) where Acontrol is the absorbance value of the control (ABTS^•+ solution with water), Ablank is the absorbance value of samples mixed with anhydrous ethanol, and Asample is the absorbance value of the added test sample to ABTS^•+ solution at 745 nm, respectively.

## COc1ccc(C2CC(=NNC(N)=S)c3c(O)cc(O)cc3O2)cc1O (stereo not drawn) [HTSC, N-[2,3-dihydro-5,7-dihydroxy-2-(3-hydroxy-4-methoxyphenyl)chromen-4-ylidene]thiosemicarbazide]
[1]
  DPPH antioxidant activity: 93.72 ± 6.8%
[2]; 25 °C, pH 3.6, with HP-β-CD
  CE complexation efficiency: 0.07%
  Kc complexation constant: 13 ± 2.9 M⁻¹
[2]; 25 °C, pH 6.5, HP-β-CD at 16 mM
  increase of solubility with HP-β-CD: five-fold
[2]; 25 °C, pH 6.5, with HP-β-CD
  CE complexation efficiency: 0.07%
  Kc complexation constant: 11 ± 1.6 M⁻¹
[2]; 25 °C, pH 8.5, with HP-β-CD
  CE complexation efficiency: 0.1%
  Kc complexation constant: 12.5 ± 0.3 M⁻¹
[2]; 37 °C, pH 3.6, with HP-β-CD
  CE complexation efficiency: 0.1%
  Kc complexation constant: 16 ± 1.7 M⁻¹
[2]; 37 °C, pH 6.5, with HP-β-CD
  CE complexation efficiency: 0.1%
  Kc complexation constant: 16 ± 1.7 M⁻¹
[2]; 37 °C, pH 8.5, with HP-β-CD
  CE complexation efficiency: 0.3%
  Kc complexation constant: 18 ± 4.2 M⁻¹
[2]; 60 °C, pH 3.6
  increase of solubility with HP-β-CD: five-fold
[2]; 60 °C, pH 3.6, with HP-β-CD
  CE complexation efficiency: 0.5%
  Kc complexation constant: 28 ± 0.3 M⁻¹
[2]; 60 °C, pH 6.5, with HP-β-CD
  CE complexation efficiency: 0.04%
  Kc complexation constant: 2.2 ± 0.6 M⁻¹
[2]; 60 °C, pH 8.5, with HP-β-CD
  CE complexation efficiency: 0.1%
  Kc complexation constant: 3.2 ± 0.6 M⁻¹
[2]; aqueous buffer, 25 °C, pH 3.6 sodium acetate buffer, without cyclodextrin, read-out: solubility without HP-β-CD (value in brackets) (converted)
  solubility at 60 min: 17 µM (≈ 6.38 µg/mL)
[2]; aqueous buffer, 25 °C, pH 6.5 sodium phosphate buffer, without cyclodextrin, read-out: solubility without HP-β-CD (value in brackets) (converted)
  solubility at 60 min: 11 µM (≈ 4.13 µg/mL)
[2]; aqueous buffer, 25 °C, pH 8.5 sodium borate buffer, without cyclodextrin, read-out: solubility without HP-β-CD (value in brackets) (converted)
  solubility at 60 min: 20 µM (≈ 7.51 µg/mL)
[2]; aqueous buffer, 37 °C, pH 3.6 sodium acetate buffer, without cyclodextrin, read-out: solubility without HP-β-CD (value in brackets) (converted)
  solubility at 60 min: 28 µM (≈ 10.5 µg/mL)
[2]; aqueous buffer, 37 °C, pH 6.5 sodium phosphate buffer, without cyclodextrin, read-out: solubility without HP-β-CD (value in brackets) (converted)
  solubility at 60 min: 27 µM (≈ 10.1 µg/mL)
[2]; aqueous buffer, 37 °C, pH 8.5 sodium borate buffer, without cyclodextrin, read-out: solubility without HP-β-CD (value in brackets) (converted)
  solubility at 60 min: 220 µM (≈ 82.6 µg/mL)
[2]; aqueous buffer, 60 °C, pH 3.6 sodium acetate buffer, without cyclodextrin, read-out: solubility without HP-β-CD (value in brackets) (converted)
  solubility at 60 min: 37 µM (≈ 13.9 µg/mL)
[2]; aqueous buffer, 60 °C, pH 6.5 sodium phosphate buffer, without cyclodextrin, read-out: solubility without HP-β-CD (value in brackets) (converted)
  solubility at 60 min: 160 µM (≈ 60.1 µg/mL)
[2]; aqueous buffer, 60 °C, pH 8.5 sodium borate buffer, without cyclodextrin, read-out: solubility without HP-β-CD (value in brackets) (converted)
  solubility at 60 min: 250 µM (≈ 93.9 µg/mL)
[2]; 25 °C, pH 3.6 sodium acetate buffer, with HP-β-CD, read-out: S0 (solubility with HP-β-CD)
  solubility at 60 min: 54 ± 30 µM (≈ 20.3 µg/mL)
[2]; 25 °C, pH 6.5 sodium phosphate buffer, with HP-β-CD, read-out: S0 (solubility with HP-β-CD)
  solubility at 60 min: 61 ± 20 µM (≈ 22.9 µg/mL)
[2]; 25 °C, pH 8.5 sodium borate buffer, with HP-β-CD, read-out: S0 (solubility with HP-β-CD)
  solubility at 60 min: 70 ± 30 µM (≈ 26.3 µg/mL)
[2]; 37 °C, pH 3.6 sodium acetate buffer, with HP-β-CD, read-out: S0 (solubility with HP-β-CD)
  solubility at 60 min: 76 ± 35 µM (≈ 28.5 µg/mL)
[2]; 37 °C, pH 6.5 sodium phosphate buffer, with HP-β-CD, read-out: S0 (solubility with HP-β-CD)
  solubility at 60 min: 68 ± 33 µM (≈ 25.5 µg/mL)
[2]; 37 °C, pH 8.5 sodium borate buffer, with HP-β-CD, read-out: S0 (solubility with HP-β-CD)
  solubility at 60 min: 160 ± 54 µM (≈ 60.1 µg/mL)
[2]; 60 °C, pH 3.6 sodium acetate buffer, with HP-β-CD, read-out: S0 (solubility with HP-β-CD)
  solubility at 60 min: 170 ± 65 µM (≈ 63.8 µg/mL)
[2]; 60 °C, pH 6.5 sodium phosphate buffer, with HP-β-CD, read-out: S0 (solubility with HP-β-CD)
  solubility at 60 min: 180 ± 60 µM (≈ 67.6 µg/mL)
[2]; 60 °C, pH 8.5 sodium borate buffer, with HP-β-CD, read-out: S0 (solubility with HP-β-CD)
  solubility at 60 min: 270 ± 89 µM (≈ 101 µg/mL)
[3]
  FRAP antioxidant activity: 0.000005 ± 0.00005 mmolFe(II)/L
[4]
  MIC: 1.25 µM
[5]
  ABTS^•+ antioxidant activity: 86.61 ± 4.6%
